A short description of data set [1]: Transwell assay for membrane efflux and permeability. The conditions noted are these: dog; MDCK-BCRP or MDCKII-MDR1 transwell, test compound 1 μM, 2 hours at 37° C. It counts as in vitro ADME, Canine. An excerpt:
Compounds described herein were screened for cell membrane permeability and efflux in a transwell assay using Madin-Darby Canine Kidney (MDCK) cells expressing Breast Cancer Resistance Protein (BCRP) or subclone MDCKII cells expressing Multidrug Resistance Protein 1 (MDR1).
MDCK-BCRP or MDCKII-MDR1 Cells: The Netherlands Cancer Institute, High Glucose Dulbecco's Modified Eagle's Medium (DMEM): Gibco/Thermo Fisher Scientific, Fetal Bovine Serum (FBS): Coming, Hank's Balanced Salt Solution (HBSS) and Trypsin/EDTA: Gibco/Thermo Fisher Scientific, HTS Transwell-96 Well Permeable Supports: Coming Corporation, Millicell Epithelial Volt-Ohm: Millipore, Cellometer® Vision: Nexcelom Bioscience LLC, Infinite 200 PRO microplate reader: Tecan, MTS2/4 orbital shaker: IKA Labortechnik, HEPES/Penicillin/Streptomycin: Solarbio.
MDCK-BCRP or MDCKII-MDR1 cells were seeded to each of the wells of the transwell plate at a density of 1.6×10^6 cells/mL and the plate was incubated for 4-8 days with medium changes every two days. To perform the drug transport assay, cell monolayers were first washed three times with pre-warmed HBSS and then incubated with gentle shaking (150 rpm) for 30 min at 37° C. Stock solutions of test compounds (e.g., exemplary compounds of Formulas (I), (II), and (III)) and control compounds (e.g., metoprolol, prazosin, and/or imatinib) were prepared in DMSO and adjusted to a working solution using HBSS. The final concentration of test compounds was 1 μM with DMSO; 0.5%. The plates were incubated at 37° C. for 2 hours.

The subject of the next data set is MYB. Briefly: HiBiT protein abundance assay, MYB. It counts as cell-based, human. The conditions noted are these: Table 13A, modified K562 cells. In a few lines:
(§1)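 HiBiT-tagged endogenous targets in K562 cells treated 24 h at 37° C. with 10-point 3-fold dilutions (top 10 μM, DMSO ≤0.25%). Luminescence read after lytic LgBiT detection; response normalised to unmodified-cell and DMSO controls, IC50 interpolated at 50% from four-parameter logistic fit.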
For orientation: The HiBiT peptide binds its large partner to form an active luciferase.

Another data set relates to HTT. Briefly: HiBiT protein abundance assay, HTT. The note with it: Table 13A, modified K562 cells. It counts as cell-based, human. In a few lines: as §1
In the next data set the test system is Target C. Briefly: HiBiT protein abundance assay, Target C. The format is cell-based, human. The note with it: Table 13A, modified K562 cells. In a few lines: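 HiBiT knock-in K562-derived cells seeded at 10000/well and treated with 10-point 3-fold dilutions (top final 10 μM, ≤0.25% DMSO) for 24 h at 37 °C. Lytic HiBiT luminescence normalised to unmodified-cell and DMSO controls; IC50 from 4-parameter fit at 50% abundance.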

In general, Papp refers to a coefficient for how fast a substance crosses the barrier. As a reminder, the efflux ratio is the permeability from basolateral to apical divided by that in the opposite direction, in the common usage. By IC50 is commonly meant the concentration that gives 50% inhibition. In data set [1], `CN(c1ccc(-c2cc(F)c(-c3cn[nH]c3)c3cn[nH]c23)nn1)[C@@H]1C[C@H]2CC[C@@H](C1)N2` [Compound 147] gave a Papp at 2 h, 1 μM below 2 ×10⁻⁶ cm/s. Besides, the efflux ratio at 2 h, 1 μM in data set [1] is above 5. Also, the IC50 in the data set with MYB (24 hours), with HTT (24 hours) and in the data set on Target C (24 hours) was below 100 nM in each case.
Consider `COc1cc(-c2ccc(-c3ccc(N(C)[C@@H]4C[C@H]5CC[C@@H](C4)N5)nn3)c3[nH]ncc23)ccn1` [Compound 385, (exo)-N-{6-[4-(2-methoxypyridin-4-yl)-1H-indazol-7-yl]pyridazin-3-yl}-N-methyl-8-azabicyclo[3.2.1]octan-3-amine], for which, in data set [1], the Papp at 2 h, 1 μM was below 2 ×10⁻⁶ cm/s and the efflux ratio at 2 h, 1 μM is above 5.
Molecule `CN(c1ccc(-c2ccc(-c3cnn(C)c3)c3cn[nH]c23)nn1)[C@@H]1C[C@H]2CC[C@@H](C1)N2` [Compound 386, (exo)-N-methyl-N-{6-[4-(1-methylpyrazol-4-yl)-1H-indazol-7-yl]pyridazin-3-yl}-8-azabicyclo[3.2.1]octan-3-amine] showed an apparent permeability (Papp) at 2 h, 1 μM in data set [1] below 2 ×10⁻⁶ cm/s. Besides, the efflux ratio at 2 h, 1 μM in data set [1] was above 5. Moreover, the IC50 with MYB (Homo sapiens, K562, 24 h) was below 100 nM; with HTT (Homo sapiens, K562, 24 h), below 100 nM; in the data set with Target C (Homo sapiens, K562, 24 h) it was below 100 nM.

Values taken from patent publication US20240368163A1, “COMPOUNDS AND METHODS FOR MODULATING SPLICING” (REMIX THERAPEUTICS INC., priority 2021, published 2024).
